Assay results published in article PMC12706794, “Identification and Characterization of a Small-Molecule Inhibitor of the Pseudomonas aeruginosa SOS Response” (ACS Infectious Diseases, 2025).

Tests used:
P. aeruginosa PAO1 = test: Antimicrobial susceptibility testing (MIC); type: cell-based, P. aeruginosa PAO1 (ATCC 15692); conditions: A12 (32 μg/mL) (−)
Protocol: The MIC of compound A12 and antibiotics was determined by using the Clinical Laboratory Standard Institute (CLSI) recommendations with minor modifications. […] Microplates were incubated in a humidified incubator for 18 h at 37 °C, and the bacterial growth was quantified by OD600. According to CLSI, MICs are defined as the lowest concentrations of antimicrobial agents that prevent visible growth.

[1] = molecular target: T1, RecAPa*-induced FlAsH-LexAPa CTD autoproteolysis (Pseudomonas aeruginosa, UniProt P37452); test: FP-based RecA*-induced LexA autoproteolysis in vitro assay; type: biochemical, P. aeruginosa
T1 construct: 6His-SUMO (N, cleaved yes); made in house; host or cells: E. coli BL21(DE3)
T1 sequence (P37452 81-204): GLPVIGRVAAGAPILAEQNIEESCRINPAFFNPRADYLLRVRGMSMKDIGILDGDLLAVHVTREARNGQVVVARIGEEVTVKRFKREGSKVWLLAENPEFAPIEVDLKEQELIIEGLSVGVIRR
Protocol: A custom-made library of 318 small molecules (MW < 1000 Da) has been screened at two different concentrations (25 μg/mL and 125 μg/mL, corresponding to molar concentrations of 30–170 μM and 150–850 μM, respectively) on the P. aeruginosa SOS system by a previously validated fluorescence polμarization (FP)-based RecA*-induced LexA autoproteolysis in vitro assay. , 1 μM FlAsH-LexAPa ^CTD and 1 μM preactivated RecA*Pa were incubated with the screened chemical fragments for 1 h at 37 °C before measuring FP.
Then, the FP-based LexA autoproteolysis assay was repeated on the two hits, monitoring the full kinetics of LexA cleavage over a 1 h incubation and exploring a wide range of drug concentrations (10–1000 μM).
A custom-made library of 318 chemical fragments (25 mg/mL stock solutions in DMSO), provided by P. Kavaliauskas (Weill Cornell Medicine of Cornell University) was screened in vitro for their ability to inhibit RecAPa*-mediated LexAPa autoproteolysis by a Fluorescence Polarization (FP)-based assay. , Twenty microliter reactions were set up in Nunc 384-Well Black microplates, and final reaction mixtures included 1 μM FlAsH-LexAPa ^CTD, the compounds (5% v/v DMSO in all the samples, including the controls devoid of compounds), and 1 μM RecAPa* (FP Buffer in the negative control; 30 mM Hepes, 150 mM NaCl, pH 7.1). The initial screening was performed with two dilutions of the compounds (25 and 125 μg/mL). The FP signal was measured after a 1 h incubation at 37 °C by an EnVision MultiMode Plate Reader (PerkinElmer) equipped with opportune FP filters and mirrors. To obtain LexAPa ^CTD autoproteolysis percent inhibition, FP data were scaled from 0% (corresponding to the positive control sample) to 100% (negative control).
Compounds displaying an inhibition of at least 50% at the highest concentration and a rather consistent increase in activity at the two tested concentrations were selected as the hits.
The same FP assay was carried out on serial dilutions of selected compounds to determine the dose–response relationship. To evaluate the effect of a reducing environment, 2 mM Tris(2-carboxyethyl)-phosphine (TCEP) was added to the reaction mixtures. The FP signal of FlAsH-LexAPa ^CTD alone was detected for 5 min before adding the compounds. The system was monitored for an additional 5 min in the presence of the tested compounds in order to observe potential aggregation events. Then, RecAPa* was added, and the autoproteolysis reaction was followed for 1 h at 37 °C (1 reading per minute). FlAsH-LexAPa ^CTD autoproteolysis percent inhibition was calculated as mentioned above and plotted as a function of compound concentration. Experimental data fitting was performed with GraphPad Prism 8 to obtain the absolute IC50.

LexAPa S125A = molecular target: T2, LexAPa S125A (Pseudomonas aeruginosa, UniProt P37452, S125A); test: Differential scanning fluorimetry (thermal shift) on LexAPa S125A; type: binding, P. aeruginosa; conditions: A12 above 100 μM
T2 construct: Concerning full-length LexAPa ^S125A, a biphasic melting curve was obtained for the pure protein; made in house; host or cells: E. coli BL21(DE3)
T2 sequence (P37452 2-204 S125A): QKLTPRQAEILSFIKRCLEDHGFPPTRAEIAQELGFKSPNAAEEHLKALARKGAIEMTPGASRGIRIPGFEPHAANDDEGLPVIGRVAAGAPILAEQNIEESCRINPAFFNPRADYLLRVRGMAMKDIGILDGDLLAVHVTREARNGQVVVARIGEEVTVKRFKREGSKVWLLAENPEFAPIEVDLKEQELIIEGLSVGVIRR
Protocol: (§1) To elucidate whether A12 binds RecAPa or LexAPa, the two proteins were submitted to a thermal shift assay by DSF, in the presence of different concentrations of A12 (30–1000 μM; Figure A–C). Controls devoid of A12 were included, as well.
(§2) Fluorescence of the SyproOrange dye was measured by a StepOne Real-Time PCR System (Applied Biosystems), while increasing the temperature from 25 to 95 °C (0.5 °C/min). Normalized fluorescence intensity curves were compared to observe macroscopic differences in the recorded melting profiles, while derivative curves were analyzed to find exact protein melting temperatures (T m, corresponding to derivative curve minimum). Melting curves were repeated twice, and duplicates were considered coherent if T m differences were lower than 1 °C.

RecAPa [2] = molecular target: T3, RecAPa (Pseudomonas aeruginosa, UniProt P08280); test: Differential scanning fluorimetry (thermal shift) on RecAPa; type: binding, P. aeruginosa; conditions: read-out: RecAPa ΔTm compared to the control
T3 construct: made in house; host or cells: E. coli BL21(DE3)
Protocol: as §1, §2
Target sequence in this assay (P08280 2-346): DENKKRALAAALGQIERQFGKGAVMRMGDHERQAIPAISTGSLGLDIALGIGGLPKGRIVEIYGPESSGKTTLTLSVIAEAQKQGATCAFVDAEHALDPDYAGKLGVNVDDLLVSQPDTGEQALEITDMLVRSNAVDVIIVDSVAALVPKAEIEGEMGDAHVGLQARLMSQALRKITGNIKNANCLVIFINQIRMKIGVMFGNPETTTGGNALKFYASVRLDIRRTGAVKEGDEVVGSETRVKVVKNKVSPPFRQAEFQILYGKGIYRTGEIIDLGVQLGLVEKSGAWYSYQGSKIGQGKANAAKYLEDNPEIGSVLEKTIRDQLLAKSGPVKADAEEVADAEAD

RecAPa [3] = molecular target: T3, RecAPa; test: Isothermal titration calorimetry on RecAPa; type: binding, P. aeruginosa
Protocol: To investigate deeper the binding of A12 to the two members of the P. aeruginosa SOS complex, ITC was performed on RecAPa and LexAPa ^S125A (Figure D,E). The integrated binding isotherms of both proteins were best fitted by a “one set of sites” model.
64 μM RecAPa and 58.5 μM LexAPa ^S125A were titrated with the selected compound (2.5 mM solution) using a Microcal PEAQ-ITC instrument (Malvern Panalytical) at 25 °C with a stirring rate of 750 rpm. Proteins and the ligand were dissolved in ITC Buffer (20 mM Tris–HCl, 150 mM NaCl, 5% v/v DMSO, pH 7.5). An initial 0.4 μL injection (excluded from data analysis) was followed by 24 injections of 1.5 μL with a spacing of 150 s between each addition. Blank experiments were performed by injecting the titrant compound in a protein-devoid ITC Buffer. Blank curves were subtracted from all of the experiments. Data were analyzed by using the MicroCal PEAQ-ITC Evaluation software (Malvern Panalytical). Integrated heat signals were fitted by a “one set of sites” binding model to obtain enthalpy changes (ΔH), dissociation constants (K D), and stoichiometry of binding.
Target sequence in this assay (P08280 whole entry): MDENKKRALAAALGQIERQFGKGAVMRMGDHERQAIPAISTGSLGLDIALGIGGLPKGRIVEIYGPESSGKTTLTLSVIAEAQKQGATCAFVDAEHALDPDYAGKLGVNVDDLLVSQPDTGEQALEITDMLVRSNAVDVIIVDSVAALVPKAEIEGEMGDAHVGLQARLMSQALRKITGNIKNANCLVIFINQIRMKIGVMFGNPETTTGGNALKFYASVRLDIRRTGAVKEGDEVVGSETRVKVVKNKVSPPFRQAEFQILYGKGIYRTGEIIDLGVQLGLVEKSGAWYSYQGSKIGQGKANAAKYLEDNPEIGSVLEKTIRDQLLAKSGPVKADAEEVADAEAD

For `O=C(O)CCNc1ccccc1S` [A12, 3-(2-sulfanylanilino)propanoic acid], the “MIC on P. aeruginosa PAO1” value (P. aeruginosa PAO1) was “no antimicrobial activity”, the MIC (P. aeruginosa PAO1; Pseudomonas aeruginosa, PAO1) was > 32 µg/mL and the IC50 ([1]; 1 μM FlAsH-LexAPa CTD, 1 μM RecAPa*, 1 h at 37 °C, read-out: IC50 on RecA*Pa-induced LexAPa autoproteolysis (FP assay)) was 295 ± 12 µM. For the same compound, the “A12 inhibitory activity under reducing conditions compared to nonreducing” value ([1]; 2 mM TCEP) was “significantly diminished”, the inhibition at 125 µg/mL ([1]; compound at 125 μg/mL, 1 h at 37 °C, read-out: LexA autoproteolysis inhibition in initial library screening) was > 50% and the “LexAPa S125A flexus of monophasic melting curve” value (LexAPa S125A) was 52.0 °C. The ΔTm at 1000 µM (RecAPa [2]) was 10 °C and the Kd (RecAPa [3]) was 18 ± 3 µM.
